Data from ChEMBL document CHEMBL1137777, “Design, synthesis, and evaluation of indolinones as triple angiokinase inhibitors and the discovery of a highly specific 6-methoxycarbonyl-substituted indolinone (BIBF 1120)” (J Med Chem, 2009).

Legend:
[1] = Half life in NMRI nu/nu mouse at 50 mg/kg, po administered as single dose; format: ADME, organism-based; parameters: dose 50 mg/kg, route oral; settings: in vivo
HUVEC = assay: cells; settings: Homo sapiens, 3 h
Description: Antiangiogenic activity in HUVEC assessed as inhibition of VEGF-induced cell proliferation by [3H]thymidine incorporation assay

Calu-6 [2] = assay: Antitumor activity against human Calu6 cells xenografted NMRI nu/nu mouse assessed as inhibition of mean tumor volume growth at 50 mg/kg, po qd after 21 days relative to control; format: functional
HT-29 = assay: Antitumor activity against human HT-29 cells xenografted NMRI nu/nu mouse assessed as inhibition of mean tumor volume growth at 100 mg/kg, po qd after 21 days relative to control; format: functional
[3] = target: Serine/threonine-protein kinase PLK1 (Homo sapiens, UniProt P53350); assay: Inhibition of human Plk1
Sequence of Serine/threonine-protein kinase PLK1 (P53350 whole entry): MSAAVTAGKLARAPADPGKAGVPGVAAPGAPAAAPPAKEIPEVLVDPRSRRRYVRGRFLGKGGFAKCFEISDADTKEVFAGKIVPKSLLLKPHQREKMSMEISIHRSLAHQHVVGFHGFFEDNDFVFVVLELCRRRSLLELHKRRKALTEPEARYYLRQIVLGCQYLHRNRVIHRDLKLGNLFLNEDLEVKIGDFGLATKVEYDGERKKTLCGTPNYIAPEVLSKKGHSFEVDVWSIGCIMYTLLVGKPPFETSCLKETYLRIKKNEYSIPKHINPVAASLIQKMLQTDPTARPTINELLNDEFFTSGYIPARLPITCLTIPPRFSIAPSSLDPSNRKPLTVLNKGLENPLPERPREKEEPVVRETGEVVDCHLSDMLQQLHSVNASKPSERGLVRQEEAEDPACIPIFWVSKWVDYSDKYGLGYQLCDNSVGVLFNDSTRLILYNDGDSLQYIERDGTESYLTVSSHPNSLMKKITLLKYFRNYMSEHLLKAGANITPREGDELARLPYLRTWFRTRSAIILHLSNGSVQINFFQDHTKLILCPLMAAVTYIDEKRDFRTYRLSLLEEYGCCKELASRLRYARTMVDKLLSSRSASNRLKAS

CAKI-1 [4] = assay: Antitumor activity against human Caki1 cells xenografted NMRI nu/nu mouse assessed as inhibition of mean tumor volume growth at 50 mg/kg, po qd after 21 days relative to control; format: functional
HeLa = assay: Antiangiogenic activity against human HeLa cells assessed as inhibition of cell proliferation by [3H]thymidine incorporation assay; format: functional, cell-based
[5] = Volume of distribution in NMRI nu/nu mouse at 50 mg/kg, po or 10 mg/kg, iv administered as single dose; format: ADME, organism-based; settings: in vivo
FaDu [6] = assay: Antitumor activity against human FADU cells xenografted NMRI nu/nu mouse assessed as inhibition of mean tumor volume growth at 10 mg/kg, po qd after 21 days relative to control; format: functional
SK-OV-3 = assay: Antitumor activity against human SKOV3 cells xenografted NMRI nu/nu mouse assessed as inhibition of mean tumor volume growth at 50 mg/kg, po qd after 21 days relative to control; format: functional
FaDu [7] = assay: Antitumor activity against human FADU cells xenografted NMRI nu/nu mouse assessed as inhibition of mean tumor volume growth at 50 mg/kg, po qd after 21 days relative to control; format: functional
FaDu [8] = assay: Antitumor activity against human FADU cells xenografted NMRI nu/nu mouse assessed as inhibition of mean tumor volume growth at 25 mg/kg, po qd after 21 days relative to control; format: functional
Mus musculus = assay: AUC in NMRI nu/nu mouse at 50 mg/kg, po administered as single dose; format: ADME, organism-based, Plasma; parameters: dose 50 mg/kg, route oral; settings: in vivo
CAKI-1 [9] = assay: Antitumor activity against human Caki1 cells xenografted NMRI nu/nu mouse assessed as inhibition of mean tumor volume growth at 10 mg/kg, po qd after 21 days relative to control; format: functional
Calu-6 [10] = assay: Antiangiogenic activity against human Calu6 cells assessed as inhibition of cell proliferation by [3H]thymidine incorporation assay; format: functional, cell-based
[11] = Oral bioavailability in NMRI nu/nu mouse at 50 mg/kg administered as single dose; format: ADME, organism-based; settings: in vivo
[12] = Plasma concentration in NMRI nu/nu mouse at 50 mg/kg, po administered as single dose after 2 hrs; format: ADME, organism-based; parameters: dose 50 mg/kg, route oral
[13] = Antitumor activity against human PAC120 cells xenografted NMRI nu/nu mouse assessed as inhibition of mean tumor volume growth at 100 mg/kg, po qd after 21 days relative to control; format: functional
[14] = Clearance in NMRI nu/nu mouse at 50 mg/kg, po or 10 mg/kg, iv administered as single dose; format: ADME, organism-based; settings: in vivo
FaDu [15] = assay: Antitumor activity against human FADU cells xenografted NMRI nu/nu mouse assessed as inhibition of mean tumor volume growth at 100 mg/kg, po qd after 21 days relative to control; format: functional
FaDu [16] = assay: Antiangiogenic activity against human FADU cells assessed as inhibition of cell proliferation by [3H]thymidine incorporation assay; format: functional, cell-based
[17] = Cmax in NMRI nu/nu mouse at 50 mg/kg, po administered as single dose; format: ADME, organism-based; parameters: dose 50 mg/kg, route oral; settings: in vivo
FaDu [18] = assay: Antitumor activity against human FADU cells xenografted NMRI nu/nu mouse assessed as inhibition of mean tumor volume growth at 50 mg/kg, po bid after 21 days relative to control; format: functional
CAKI-1 [19] = assay: Antitumor activity against human Caki1 cells xenografted NMRI nu/nu mouse assessed as inhibition of mean tumor volume growth at 100 mg/kg, po qd after 21 days relative to control; format: functional
[20] = Plasma concentration in NMRI nu/nu mouse at 50 mg/kg, po administered as single dose after 24 hrs; format: ADME, organism-based; parameters: dose 50 mg/kg, route oral

## COC(=O)c1ccc2c(c1)NC(=O)/C2=C(\Nc1ccc(N(C)C(=O)CN2CCN(C)CC2)cc1)c1ccccc1 [NINTEDANIB]
[1]
  half-life: 5 h
HUVEC
  IC50: 0.01 µM
Calu-6 [2]
  T/C: 24%
HT-29
  T/C: 16%
[3]
  IC50: > 10 µM
CAKI-1 [4]
  T/C: 25%
HeLa
  EC50: > 1 µM
[5]
  Vd: 32 L/kg
FaDu [6]
  T/C: 82%
SK-OV-3
  T/C: 19%
FaDu [7]
  T/C: 14%
FaDu [8]
  T/C: 46%
Mus musculus
  AUC: 2.75 µM·h
CAKI-1 [9]
  T/C: 71%
Calu-6 [10]
  EC50: > 1 µM
[11]
  bioavailability: 45%
[12]
  concentration at 2 h: 923 nM
[13]
  T/C: 34%
[14]
  clearance: 173 mL/min/kg
FaDu [15]
  T/C: 11%
FaDu [16]
  EC50: > 1 µM
[17]
  Cmax: 1090 nM
FaDu [18]
  T/C: 15%
CAKI-1 [19]
  T/C: 16%
[20]
  concentration at 24 h: 8 nM
